Read-outs that look alike come from different tables or passages of the source.
Key:
[1] = test system: HeLa cells (expressing WT NQO1); conditions: 24 h, dicoumarol 100 μM, riboflavin 10 μM
Method: (§1) After transferring to polyvinylidene difluoride membranes (GE Healthcare), immunoblotting was carried out using primary monoclonal antibodies anti-NQO1 and anti-β-actin (Santa Cruz Biotechnology) from mouse at 1:500 and 1:10000 dilutions, respectively. As secondary antibody, we used goat anti-mouse IgG-HRP (Santa Cruz Biotechnology) at 1:1000 dilution. Chemiluminiscent detection of bands was carried out using Clarity™ Western ECL Blotting Substrate (Biorad) and analyzed using a luminescent image analyzer LAS-4000 mini (Fujifilm).

[2] = test system: HCT 116 cells (heterozygous for p.R139W); conditions: 24 h, dicoumarol 100 μM, riboflavin 10 μM
Method: as §1

[3] = test system: Caco-2 cells (homozygous for p.P187S); assay: Steady-state NQO1 protein levels by immunoblotting, Caco-2 cells; type: cell-based, human; conditions: 24 h, dicoumarol 100 μM, riboflavin 10 μM, normalized to untreated cells
Method: as §1

NQO1 WT [4] = target: T1, NQO1 WT (Homo sapiens, UniProt P15559); assay: Proteolysis by thermolysin, WT NQO1; conditions: WT apo-protein vs as purified
Method: (§2) Proteolysis was performed at 25 °C in HEPES-KOH 50 mM CaCl2 10 mM pH 7.4 using 20 μM in NQO1 (monomer), and the reaction was initiated by the addition of thermolysin (at a final concentration of 10 pM-1 μM) in a final volume of 200 μL. Proteolysis reactions were performed using the NQO1 proteins as purified or as apo-proteins. […] After normalization of the intensities using that of the control sample in the absence of thermolysin, the Intensity (I) vs. Time (t) profiles were analyzed using a single exponential function:
(§3) where k is the proteolysis rate constant and I0 the initial intensity.

NQO1 p.R139W [5] = target: T2, NQO1 p.R139W (Homo sapiens, UniProt P15559, R139W); assay: Proteolysis by thermolysin, p.R139W NQO1; conditions: p.R139W apo-protein vs as purified
Method: as §2, §3

NQO1 p.R139W [6] = target: T2, NQO1 p.R139W; set-up: made in house; conditions: FAD binding to p.R139W, two-sequential binding sites model, average of two titrations, cited from earlier work
NQO1 p.P187S [7] = target: T3, NQO1 p.P187S (Homo sapiens, UniProt P15559, P187S); set-up: made in house; conditions: FAD binding to p.P187S; single set of sites model; average of two titrations; read-out: Kd1; cited from earlier work
NQO1 p.P187S [8] = target: T3, NQO1 p.P187S; assay: Binding affinity by ITC, p.P187S NQO1; conditions: FAD and dicoumarol stated together
Method: After peak integration, binding isotherms were analyzed using a one-type of independent sites model using the software provided by the manufacturer.

NQO1 WT [9] = target: T1, NQO1 WT; set-up: made in house; conditions: FAD binding to WT, two-sequential binding sites model, average of two titrations, cited from earlier work

T2 sequence (P15559 whole entry R139W): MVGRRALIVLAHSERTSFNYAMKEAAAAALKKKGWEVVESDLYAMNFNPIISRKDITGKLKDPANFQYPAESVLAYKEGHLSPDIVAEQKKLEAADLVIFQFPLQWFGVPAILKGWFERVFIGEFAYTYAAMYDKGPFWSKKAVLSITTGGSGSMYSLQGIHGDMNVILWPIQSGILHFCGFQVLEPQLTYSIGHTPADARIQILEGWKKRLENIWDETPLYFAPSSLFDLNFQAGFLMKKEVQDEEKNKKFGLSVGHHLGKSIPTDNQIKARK
T1 sequence (P15559 whole entry): as the sequence (P15559 whole entry R139W) above, with W139R counted along it
T3 sequence (P15559 whole entry P187S): as the sequence (P15559 whole entry R139W) above, with W139R, P187S counted along it

SMILES: Cc1cc2nc3c(=O)[nH]c(=O)nc-3n(C[C@H](O)[C@H](O)[C@H](O)CO)c2cc1C [riboflavin]
- effect on protein levels of WT NQO1 [1]: small effects
- effect on protein levels of p.R139W NQO1 [2]: small effects
- enhancement of steady-state levels of p.P187S NQO1 protein [3]: much lower effect

SMILES: Cc1cc2nc3c(=O)[nH]c(=O)nc-3n(C[C@H](O)[C@H](O)[C@H](O)COP(=O)(O)OP(=O)(O)OC[C@H]3O[C@@H](n4cnc5c(N)ncnc54)[C@H](O)[C@@H]3O)c2cc1C [FAD]
- increase in the sensitivity towards thermolysin on removal of FAD (NQO1 WT [4]): 200 fold
- increase in the sensitivity towards thermolysin on removal of FAD (NQO1 p.R139W [5]): 200 fold
- Kd (NQO1 p.R139W [6]; read-out: Kd1): ~3 nM
- Kd (NQO1 p.R139W [6]; read-out: Kd2): 70 nM
- Kd (NQO1 p.P187S [7]): 400 nM
- lower affinity of p.P187S than the WT enzyme (NQO1 p.P187S [8]): 10–100 fold
- Kd (NQO1 WT [9]; read-out: Kd1): ~1 nM
- Kd (NQO1 WT [9]; read-out: Kd2): 60 nM

From article PMC4738246, “Conformational dynamics is key to understanding loss-of-function of NQO1 cancer-associated polymorphisms and its correction by pharmacological ligands” (Scientific Reports, 2016)
